Experiment [1] deals with HeLa. In words: Inhibition of hypoxia-induced HIF1alpha accumulation in human HeLa cells after 6 hrs by Western blot analysis. The experiment is classed as functional, cell-based.
The test system of experiment [2] is HeLa. Particulars: Homo sapiens, 3 uM.
Description: Inhibition of hypoxia-induced HIF1alpha accumulation in human HeLa cells at 3 uM after 6 hrs by Western blot analysis
Experiment [3] deals with T1, Thermolysin (Bacillus thermoproteolyticus) (UniProt P00800).
T1 sequence (whole entry): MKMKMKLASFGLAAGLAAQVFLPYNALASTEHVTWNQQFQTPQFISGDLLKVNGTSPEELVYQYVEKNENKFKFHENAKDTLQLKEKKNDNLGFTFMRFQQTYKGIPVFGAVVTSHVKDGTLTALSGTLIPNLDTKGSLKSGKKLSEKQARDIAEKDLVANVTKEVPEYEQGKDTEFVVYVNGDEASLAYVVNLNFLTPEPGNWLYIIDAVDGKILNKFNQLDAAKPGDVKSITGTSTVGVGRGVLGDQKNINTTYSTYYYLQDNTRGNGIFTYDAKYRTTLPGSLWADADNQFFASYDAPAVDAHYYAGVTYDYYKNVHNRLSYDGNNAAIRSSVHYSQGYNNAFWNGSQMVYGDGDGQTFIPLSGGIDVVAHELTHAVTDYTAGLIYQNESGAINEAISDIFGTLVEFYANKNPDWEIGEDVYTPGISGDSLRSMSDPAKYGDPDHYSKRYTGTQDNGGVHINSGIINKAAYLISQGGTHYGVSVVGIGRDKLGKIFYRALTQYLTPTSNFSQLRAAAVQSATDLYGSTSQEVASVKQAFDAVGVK
In words: Inhibition of Bacillus thermoproteolyticus rokko thermolysin using FITC-Casein substrate at 10 to 100 uM by fluorescence assay.

Experiment [4] is filed under the species Bos taurus. Kind of experiment: Inhibition of bovine pancreatic chymotrypsin using FITC-Casein substrate at 10 to 100 uM by fluorescence assay.
Experiment [5] deals with T2, Sentrin-specific protease 2 (Homo sapiens) (UniProt Q9HC62).
T2 sequence (whole entry): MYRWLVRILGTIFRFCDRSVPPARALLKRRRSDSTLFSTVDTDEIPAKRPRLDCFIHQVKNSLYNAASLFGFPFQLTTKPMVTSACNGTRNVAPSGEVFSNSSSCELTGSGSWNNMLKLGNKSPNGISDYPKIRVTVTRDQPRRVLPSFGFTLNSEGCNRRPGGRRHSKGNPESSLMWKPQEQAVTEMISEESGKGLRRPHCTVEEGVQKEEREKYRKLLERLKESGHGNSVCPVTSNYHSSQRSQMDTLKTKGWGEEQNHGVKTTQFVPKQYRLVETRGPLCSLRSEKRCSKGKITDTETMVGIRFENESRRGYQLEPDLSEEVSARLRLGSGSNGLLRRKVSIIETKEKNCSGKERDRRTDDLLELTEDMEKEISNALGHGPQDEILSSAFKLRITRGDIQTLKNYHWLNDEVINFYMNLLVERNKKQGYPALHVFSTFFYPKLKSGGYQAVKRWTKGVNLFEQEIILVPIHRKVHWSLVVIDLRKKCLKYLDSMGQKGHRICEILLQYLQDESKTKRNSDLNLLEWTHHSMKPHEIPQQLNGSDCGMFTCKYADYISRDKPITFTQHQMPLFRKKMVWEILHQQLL
Kind of experiment: Inhibition of recombinant human SENP2 catalytic domain assessed as release of fluorescent AMC from SUMO-1-AMC preincubated at 10 to 100 uM for 10 mins before substrate addition by fluorescence assay.

The species named for experiment [6] is Bos taurus. In words: Inhibition of bovine pancreatic trypsin using FITC-Casein substrate at 10 to 100 uM by fluorescence assay.

Calls of active or inactive are those of the source. The rule behind the calls is not given here.

Take `COC(=O)c1cccc(CNc2ccc(N(C)C(=O)Nc3ccccc3)cc2)c1`: the inhibition result in the experiment with HeLa [1] was “Dose-dependent effect”. In addition, the inhibition result in the experiment with HeLa [2] was “Active”.
Take `CCOC(=O)c1cccc(CNc2ccc(N(C)C(=O)Nc3ccccc3)cc2)c1`: the inhibition result (in experiment [3]; in the experiment filed under Bos taurus [4]; in experiment [5]; in the experiment filed under Bos taurus [6]) was “inactive” each time. Further, the inhibition result with HeLa [1] is “Dose-dependent effect”.

These data come from ChEMBL document CHEMBL2177099, “Discovery of 1-[4-(N-benzylamino)phenyl]-3-phenylurea derivatives as non-peptidic selective SUMO-sentrin specific protease (SENP)1 inhibitors” (Bioorg Med Chem Lett, 2012).
